One assay deals with C32 human melanoma cells. The assay can be described thus: cell viability in the C32 cell-based assay (Viability, C32 IC50). The following applies: concentration causing 50% cell death, values greater than 10 represent a lack of cell death. An outline of the steps: (§1)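 Cell death was scored within the cell-based GM3 experiment for each line. The viability value is the concentration producing 50% death, and numbers exceeding 10 signify no cytotoxicity.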

The test system of the next assay is B16 mouse melanoma cells. The assay can be described thus: cell viability in the B16 cell-based assay (Viability, B16 IC50). In a few lines: as §1
The subject of assay [1] is GM3 expression on the cell surface, B16 mouse melanoma cells. Briefly: cell based phenotypic assay, cell surface GM3 by antibody mediated immunofluorescence, B16 (GM3 B16 IC50). The following applies: 50% inhibition of GM3 expression on the cell surface. An outline of the steps:
(§2)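 B16 mouse and C32 human melanoma cells; cell-surface GM3 measured by antibody-mediated immunofluorescence, giving IC50.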

The next assay deals with jck mice. Briefly: glucosylceramide synthase inhibition in a model of polycystic kidney disease (jck mice). The class given is in vivo, mouse. The following applies: FIG. 3. From the text:
Mice homozygous for the Nek8jck mutation develop polycystic kidney disease (“jck mice”). […] Disease is progressive but not evident by kidney palpation until at least 4 to 5 weeks of age. Homozygotes generally remain active until shortly before death and usually die between 20 and 25 weeks of age. […] No histologic abnormalities are found in the liver, spleen, or pancreas. (Atala et al., 1993).
To evaluate the effects of a GCS inhibitor on polycystic kidney disease, Compound 156, (S)-quinuclidin-3-yl (2-(4′-(2-methoxyethoxy)-[1,1′-biphenyl]-4-yl)propan-2-yl)carbamate was administered in the feed of jck mice at doses of 15, 30 and 50 mg/kg. A second compound, quinuclidin-3-yl (2-(4′-fluoro-[1,1′-biphenyl]-3-yl)propan-2-yl)carbamate (hereinafter “GZ 161”) was administered in the feed of jck mice at a dose of 60 mg/kg.
Administration of the compound was started between 3 and 4 weeks of age, and continued until the mice were sacrificed at 9 weeks of age. The effect of the compounds on the disease phenotype was evaluated by measurement of body weight, blood urea nitrogen (“BUN”), and serum GL1. Additional effects on kidney/body weight (K/BW), cyst volume, BUN, kidney GL1, and serum GL1 were also measured at the end of life time point of the study.

For assay [2], the target named is T1, glucosylceramide synthase (Homo sapiens, UniProt Q16739).
T1 construct: Microsomes were isolated from A375 human melanoma cells; endogenous in cells; host or cells: A375 human melanoma cells (microsomal fraction, 100,000 g pellet)
T1 sequence (Q16739 1-394): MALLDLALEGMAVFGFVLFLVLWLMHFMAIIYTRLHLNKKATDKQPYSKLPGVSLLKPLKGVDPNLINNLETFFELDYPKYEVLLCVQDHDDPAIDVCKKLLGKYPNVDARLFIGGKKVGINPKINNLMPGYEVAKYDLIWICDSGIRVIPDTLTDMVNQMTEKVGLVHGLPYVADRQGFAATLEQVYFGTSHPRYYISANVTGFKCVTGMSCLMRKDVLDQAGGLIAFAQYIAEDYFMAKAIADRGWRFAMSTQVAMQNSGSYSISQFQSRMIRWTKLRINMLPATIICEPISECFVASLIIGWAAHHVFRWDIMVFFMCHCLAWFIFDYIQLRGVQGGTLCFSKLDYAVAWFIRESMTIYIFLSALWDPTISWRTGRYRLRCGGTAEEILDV
Briefly: microsomal assay measuring conversion of ceramide to glucosylceramide by HPLC (GCS IC50). The class given is biochemical. The following applies: concentration causing 50% inhibition of glucosylceramide synthase activity. In a few lines:
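IC50 is the compound concentration halving glucosylceramide synthase activity. Activity was measured in microsomes, with HPLC quantifying glucosylceramide formed from ceramide.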

Assay [3] deals with GM3 expression on the cell surface, C32 human melanoma cells. Briefly: cell based phenotypic assay, cell surface GM3 by antibody mediated immunofluorescence, C32 (GM3 C32 IC50). The following applies: 50% inhibition of GM3 expression on the cell surface. An outline of the steps: as §2
The next assay relates to K14 mouse. The assay can be described thus: K14 mouse model of type 2 Gaucher disease. In kind it is in vivo. From the text:
As noted above, Gaucher Disease results from a deficiency of the lysosomal enzyme glucocerebrosidase (GC). In the most common phenotype of Gaucher disease (type 1), pathology is limited to the reticuloendothelial and skeletal systems and there are no neuropathic symptoms. See Barranger, Glucosylceramide lipidosis: Gaucher disease. In: Scriver CR BA, Sly WS, Valle D, editor. The Metabolic Basis of Inherited Disease. New York: McGraw-Hill. pp. 3635-3668 (2001). In neuropathic Gaucher disease (nGD), subdivided into type 2 and type 3 Gaucher disease, the deficiency of glucocerebrosidase (GC) causes glucosylceramide (GluCer; GL-1) and glucosylsphingosine (GluSph) to accumulate in the brain, leading to neurologic impairment. Type 2 Gaucher disease is characterized by early onset, rapid progression, extensive pathology in the viscera and central nervous system, and death usually by 2 years of age. Type 3 Gaucher disease, also known as subacute nGD, is an intermediate phenotype with varying age of onset and different degrees of severity and rates of progression. Goker-Alpan et al., The Journal of Pediatrics 143: 273-276 (2003). A recent development has produced the K14 lnl/lnl mouse model of type 2 Gaucher disease (hereinafter, the “K14 mouse”); this mouse model closely recapitulates the human disease showing ataxia, seizures, spasticity and a reduced median lifespan of only 14 days. Enquist et al., PNAS 104: 17483-17488 (2007).
As in patients with nGD, several mouse models of the disease have increased levels of GluCer and GluSph in the brain due to the deficiency in GC activity. Liu et al., PNAS 95: 2503-2508 (1998) and Nilsson, J. Neurochem 39: 709-718 (1982). The “K14” mice display a neuropathic phenotype that shares many pathologic features with type 2 Gaucher disease, such as neurodegeneration, astrogliosis, microglial proliferation, and increased levels of GluCer and GluSph in specific brain regions. Enquist et al. (2007).
Clinical management of patients affected by nGD poses a challenge for treating physicians both because of the severity of type 2 disease and the inability of the current therapies to cross the blood brain barrier (BBB). Current treatment of non-nGD relies on the intravenous delivery of recombinant human glucocerebrosidase (Imiglucerase; Cerezyme™) to replace the missing enzyme or the administration of glucosylceramide synthase inhibitors to attenuate substrate (GL-1) production. […] Current small molecule glucosylceramide synthase inhibitors in the clinic are not likely to address the neuropathic phenotypes of nGD.

The mark [4] stands for this setting: all three dose groups (15, 30 and 50 mg/kg in feed), vs vehicle control group.
Setting [5] is: in feed at 15, 30 and 50 mg/kg, associated with GL1 inhibition.
Where [6] appears, read: C32 cells, read-out: Viability, C32 IC50.
The mark [7] stands for this setting: B16 cells, concentration causing 50% cell death, values greater than 10 represent a lack of cell death, read-out: Viability, B16 IC50.
Where [8] appears, read: B16 mouse melanoma cells, read-out: GM3 B16 IC50.
Where [9] appears, read: C32 human melanoma cells, read-out: GM3 C32 IC50.

Like-named read-outs stand apart in the source and are kept apart here.

For `COCCOc1ccc(-c2ccc(C(C)(C)NC(=O)O[C@@H]3CN4CCC3CC4)cc2)cc1` [Example 156, (S)-Quinuclidin-3-yl (2-(4′-(2-methoxyethoxy)-[1,1′-biphenyl]-4-yl)propan-2-yl)carbamate], the IC50 (in general, the concentration that gives 50% inhibition) with C32 human melanoma cells (Homo sapiens, C32, read-out: Viability, C32 IC50, C32 cells) turned out to be 763 nM; in the assay with B16 mouse melanoma cells (Mus musculus, B16, read-out: Viability, B16 IC50) it was 4740 nM; in assay [1] (Mus musculus, read-out: GM3 B16 IC50, B16 mouse melanoma cells), 43.7 nM; in assay [2], 4.14 nM; in assay [3] (Homo sapiens, read-out: GM3 C32 IC50, C32 human melanoma cells), 1.31 nM. Also, the body weight entry in the assay on jck mice (30 mg/kg in feed, vs vehicle control group) is given as “statistically different”; in the assay with jck mice (50 mg/kg in feed, vs vehicle control group), “statistically different”. Further, the “BUN (blood urea nitrogen)” value in the assay with jck mice (setting [4]) is “statistically different”. In the assay with jck mice (setting [4]), the cyst volume entry is listed as “statistically different”. In addition, the “kidney to body weight (K/BW)” value in the assay on jck mice (setting [4]) is given as “statistically different”. Besides, the cyst growth entry in the assay with jck mice (setting [5]) is recorded as “reduced”. In addition, in the assay on jck mice (setting [5]), the kidney function entry was “preservation”. Also, the GL1 levels result in the assay on jck mice (in feed at 15, 30 and 50 mg/kg, from 3-4 weeks to 9 weeks of age, vs vehicle control) is “dose-dependent inhibition”.

As to `COCCOc1ccc(-c2ccc(C(C)(C)NC(=O)OC3CCN4CCC3CC4)nc2)cc1` (stereo not shown) [Example 347, 1-Azabicyclo[3.2.2]nonan-4-yl 2-(5-(4-(2-methoxyethoxy)phenyl)pyridin-2-yl)propan-2-ylcarbamate], the IC50 with C32 human melanoma cells (Homo sapiens, C32, C32 cells, read-out: Viability, C32 IC50) was 1410 nM; in the assay with B16 mouse melanoma cells (Mus musculus, B16, B16 cells, concentration causing 50% cell death, values greater than 10 represent a lack of cell death, read-out: Viability, B16 IC50), no less than 10000 nM; in assay [1] (Mus musculus, B16 mouse melanoma cells, read-out: GM3 B16 IC50), 150 nM; in assay [2], 36.8 nM; in assay [3] (Homo sapiens, C32 human melanoma cells, read-out: GM3 C32 IC50) it was 5.82 nM.

Consider `CC(C)(NC(=O)OC1CN2CCC1CC2)c1cccc(-c2ccc(F)cc2)c1` (stereo not shown) [GZ 161, quinuclidin-3-yl (2-(4′-fluoro-[1,1′-biphenyl]-3-yl)propan-2-yl)carbamate], for which the “kidney to body weight (K/BW)” value with jck mice (60 mg/kg in feed, vs vehicle control group) was “statistically different”.

For the compound `CC(C)(NC(=O)OC1CN2CCC1CC2)c1cccc(-c2ccc(F)cc2)c1` (stereo not shown) [Gz161, Quinuclidin-3-yl (2-(4′-fluoro-[1,1′-biphenyl]-3-yl)propan-2-yl)carbamate], in the assay with K14 mouse, the “brain GluCer” value was “reduce”, the “brain GluSph” value is “reduce”, the brain neuropathology entry is given as “reduced” and the lifespan entry is “extended”.

For the compound “N-(2-(4-(4-(Methylcarbamoyl)phenoxy)phenyl)propan-2-yl)-1,4-diazabicyclo[3.2.2]nonane-4-carboxamide [Example 305]”, the IC50 is 1000 nM with C32 human melanoma cells (setting [6]); no less than 10000 nM in the assay with B16 mouse melanoma cells (setting [7]); 299 nM in assay [1] (setting [8]); 399 nM in assay [2]; 19.5 nM in assay [3] (setting [9]).

As to “N-(4-Methyl-1-azabicyclo[3.2.2]nonan-4-yl)-4-(3-(pyrimidin-5-yl)phenyl)piperazine-1-carboxamide [Example 27]”, the IC50 was no less than 10000 nM in the assay with C32 human melanoma cells (setting [6]); no less than 10000 nM in the assay with B16 mouse melanoma cells (setting [7]); greater than 10000 nM in assay [1] (setting [8]); 16500 nM in assay [2]; 798 nM in assay [3] (setting [9]).

Take “Quinuclidin-3-yl (2-(4′-(2-methoxyethoxy)-[1,1′-biphenyl]-3-yl)propan-2-yl)carbamate [Example 175]”: the IC50 was 9000 nM in the assay with C32 human melanoma cells (setting [6]); no less than 10000 nM in the assay on B16 mouse melanoma cells (setting [7]); 71.3 nM in assay [1] (setting [8]); 2.5 nM in assay [2]; 1.87 nM in assay [3] (setting [9]).

With “Quinuclidin-3-yl (2-(4′-((2-methoxyethoxy)methyl)-[1,1′-biphenyl]-3-yl)propan-2-yl)carbamate [Example 203]”, the IC50 in the assay on C32 human melanoma cells (setting [6]) was 1780 nM; in the assay on B16 mouse melanoma cells (setting [7]), no less than 10000 nM; in assay [1] (setting [8]) it was 96.3 nM; in assay [2], 29.6 nM; in assay [3] (setting [9]) it was 6.53 nM.

(Values after patent US12060349B2, “Glucosylceramide synthase inhibitors” (Genzyme Corporation, priority 2012, dated 2024).)
